Assay results: paper PMC12928700, “Structure of the human CTF18−RFC clamp loader bound to PCNA” (eLife, 2026)

Legend:
[1] = molecular target: T1, CTF18–RFC bound to PCNA (ADP site in RFC3) (Homo sapiens, UniProt P40938); assay: cryo-EM structure ([…] Å without Mg2+; […] Å with Mg2+); format: binding; settings: ADP in AAA+ site of RFC3, not added, probably co-purified; seen with and without Mg2+
T1 construct: same complex as P1; RFC3 with N-terminal His6 tag, insect cells; Ctf8/Dcc1 module not resolved in map; with Chromosome transmission fidelity protein 18 homolog; Replication factor C subunit 2; Replication factor C subunit 4; Replication factor C subunit 5; Sister chromatid cohesion protein DCC1; Chromosome transmission fidelity protein 8 homolog; Proliferating cell nuclear antigen

[2] = molecular target: T2, CTF18–RFC bound to PCNA (ATP sites in Ctf18, RFC2, RFC5) (Homo sapiens, UniProt P35250+P40937+Q8WVB6); assay: as above; format: binding; settings: ATP in AAA+ sites of Ctf18 (adenine density poor), RFC2 and RFC5; RFC4 empty; 0.5 mM ATP, pH 7.5, without Mg2+ or with 5 mM Mg2+ (Mg2+ seen in RFC2 and RFC5); autoinhibited state, closed PCNA
T2 construct: gene CHTF18; seven-subunit complex from insect cells (MultiBac, Sf9/Hi5); N-terminal twin-Strep-TEV tag (Ctf18, RFC2, RFC4) and N-terminal His6 tag (RFC3, RFC5, Dcc1, Ctf8), TEV treated; PCNA from E. coli; Ctf8/Dcc1 module not resolved in map; with Replication factor C subunit 4; Replication factor C subunit 3; Sister chromatid cohesion protein DCC1; Chromosome transmission fidelity protein 8 homolog; Proliferating cell nuclear antigen

SMILES | cryo-EM structure (2.9 Å without Mg2+; 3.2 Å with Mg2+) [1] | cryo-EM structure (2.9 Å without Mg2+; 3.2 Å with Mg2+) [2]
Nc1ncnc2c1ncn2[C@@H]1O[C@H](COP(=O)(O)OP(=O)(O)O)[C@@H](O)[C@H]1O [ADP] | while ADP appears to engage RFC3 | –
Nc1ncnc2c1ncn2[C@@H]1O[C@H](COP(=O)(O)OP(=O)(O)OP(=O)(O)O)[C@@H](O)[C@H]1O [ATP] | – | ATP is bound to subunits Ctf18, RFC2, and RFC5, while ADP appears to engage RFC3
